Test results from patent US20200268702A1, “METHODS OF TREATING […]” (Amarin Pharmaceuticals Ireland Limited, priority 2013, published 2020).

Tests used:
[1] = tested on: patients with fasting triglyceride levels ≥200 mg/dl and <500 mg/dl despite statin therapy; assay: ANCHOR study: 12-week placebo-controlled study of >96% E-EPA on statin therapy, metabolic syndrome subgroup; type: in vivo, human
Description: A multi-center, placebo-controlled, randomized, double-blind, 12-week study was performed to evaluate the efficacy and safety of >96% E-EPA in patients with fasting triglyceride levels ≥200 mg/dl and <500 mg/dl despite statin therapy (the mean of two qualifying entry values needed to be ≥185 mg/dl and at least one of the values needed to be ≥200 mg/dl). The primary objective of the study was to determine the efficacy of >96% E-EPA 2 g daily and 4 g daily, compared to placebo, in lowering fasting TG levels in patients with high risk for cardiovascular disease and with fasting TG levels ≥200 mg/dL and <500 mg/dL, despite treatment to LDL-C goal on statin therapy.
The population for this study was men and women >18 years of age with a body mass index ≤45 kg/m^2 with fasting TG levels greater than or equal to 200 mg/dl and less than 500 mg/dl and on a stable does of statin therapy (with or without ezetimibe). The statin was atorvostatin, rosuvastatin or simvastatin. The dose of statin must have been stable for ≥4 weeks prior to the LDL-C/TG baseline qualifying measurement for randomization. The statin dose was optimized such that the patients are at their LDL-C goal at the LDL-C/TG baseline qualifying measurements. The same statin at the same dose was continued until the study ended.
Approximately 702 patients were randomized at approximately 80 centers in the U.S. The study was a 18- to 20-week, Phase 3, multi-center study consisting of 2 study periods: (1) A 6- to 8-week screening period that included a diet and lifestyle stabilization, a non-statin lipid-altering treatment washout, and an LDL-C and TG qualifying period and (2) A 12-week, double-blind, randomized, placebo-controlled treatment period.
After confirmation of qualifying fasting LDL-C and TG values, eligible patients entered a 12-week, randomized, double-blind treatment period. At Visit 4 (Week 0), patients were randomly assigned to 1 of the following treatment groups: • >96% E-EPA 2 g daily, • >96% E-EPA 4 g daily, or • Placebo.
>96% E-EPA was provided in 1 g liquid-filled, oblong, gelatin capsules. The matching placebo capsule was filled with light liquid paraffin and contained 0 g of >96% E-EPA. >96% E-EPA capsules were to be taken with food (i.e. with or at the end of a meal).
During the double-blind treatment period, patients were to take 2 capsules (>96% E-EPA or matching placebo) in the morning and 2 capsules in the evening for a total of 4 capsules per day. • Patients in the >96% E-EPA 2 g/day treatment group received 1>96% E-EPA 1 g capsule and 1 matching placebo capsule in the morning and in the evening. • Patients in the >96% E-EPA 4 g/day treatment group received 2>96% E-EPA 1 g capsules in the morning and evening.
The primary efficacy variable for the double-blind treatment period was percent change in TG from baseline to Week 12 endpoint. […]

[2] = tested on: subjects with Age-Associated Memory Impairment; assay: Safety and tolerability (adverse events), 6-week AAMI study; type: in vivo, human
Description: Ninety-four subjects were randomized into one of six groups: 1 g E-EPA daily (n=23), 2 g E-EPA daily (n=24), 4 g E-EPA daily (n=24), 1 g placebo daily (n=7), 2 g placebo daily (n=8), and 4 g placebo daily (n=8).
All randomized subjects that received at least 1 dose of study medication were included in the Safety Population.
Safety evaluations were based on the safety population. Safety and tolerability were assessed in terms of AEs, vital signs, 12-lead ECG, clinical laboratory data, medical history, and study drug compliance. Safety and tolerability data were presented by treatment group.

[3] = 4 g/day, week 12, listed as IPE

CC/C=C\C/C=C\C/C=C\C/C=C\C/C=C\CCCC(=O)OCC [AMR101, ethyl eicosapentaenoate]
Apo B, Change from Baseline, % ([1]; 2 g/day, week 12): 3.3%
Apo B, End of Treatment, median (IQR) ([1]; 2 g/day, week 12): 95.0 (23.00) mg/dL
Apo B, Median % Change From Baseline vs Placebo ([1]; 2 g/day, week 12): −2.6%
HDL-C, Change from Baseline, % ([1]; 2 g/day, week 12): 2.2%
HDL-C, End of Treatment, median (IQR) ([1]; 2 g/day, week 12): 38.0 (12.00) mg/dL
HDL-C, Median % Change From Baseline vs Placebo ([1]; 2 g/day, week 12): −1.4%
LDL-C, Change from Baseline, % ([1]; 2 g/day, week 12): 2.5%
LDL-C, End of Treatment, median (IQR) ([1]; 2 g/day, week 12): 87.0 (28.00) mg/dL
LDL-C, Median % Change From Baseline vs Placebo ([1]; 2 g/day, week 12): −2.4%
Non-HDL-C, Change from Baseline, % ([1]; 2 g/day, week 12): 2.7%
Non-HDL-C, End of Treatment, median (IQR) ([1]; 2 g/day, week 12): 134.0 (44.00) mg/dL
Non-HDL-C, Median % Change From Baseline vs Placebo ([1]; 2 g/day, week 12): −4.4%
TG, Change from Baseline, % ([1]; 2 g/day, week 12): −5.8%
TG, End of Treatment, median (IQR) ([1]; 2 g/day, week 12): 246.0 (117.00) mg/dL
TG, Median % Change From Baseline vs Placebo ([1]; 2 g/day, week 12): −10.3%
hsCRP, Change from Baseline, % ([1]; 2 g/day, week 12): 8.4%
hsCRP, End of Treatment, median (IQR) ([1]; 2 g/day, week 12): 2.5 (3.35) mg/L
hsCRP, Median % Change From Baseline vs Placebo ([1]; 2 g/day, week 12): −7.6%
Apo B, Change from Baseline, % ([1]; 4 g/day, week 12): −2.2%
Apo B, End of Treatment, median (IQR) ([1]; 4 g/day, week 12): 89.0 (26.00) mg/dL
HDL-C, Change from Baseline, % ([1]; 4 g/day, week 12): 0.0%
HDL-C, End of Treatment, median (IQR) ([1]; 4 g/day, week 12): 36.0 (12.00) mg/dL
HDL-C, Median % Change From Baseline vs Placebo ([1]; 4 g/day, week 12): −4.0%
LDL-C, Change from Baseline, % ([1]; 4 g/day, week 12): 2.1%
LDL-C, End of Treatment, median (IQR) ([1]; 4 g/day, week 12): 83.0 (31.00) mg/dL
Non-HDL-C, Change from Baseline, % ([1]; 4 g/day, week 12): −5.3%
Non-HDL-C, End of Treatment, median (IQR) ([1]; 4 g/day, week 12): 121.0 (37.00) mg/dL
TG, Change from Baseline, % ([1]; 4 g/day, week 12): −17.4%
TG, End of Treatment, median (IQR) ([1]; 4 g/day, week 12): 221.0 (93.50) mg/dL
hsCRP, Change from Baseline, % ([1]; 4 g/day, week 12): −3.4%
hsCRP, End of Treatment, median (IQR) ([1]; 4 g/day, week 12): 2.0 (3.00) mg/L
Apo B, Median % Change From Baseline vs Placebo [1, 3]: −8.8%
LDL-C, Median % Change From Baseline vs Placebo [1, 3]: −5.2%
Non-HDL-C, Median % Change From Baseline vs Placebo [1, 3]: −13.5%
TG, Median % Change From Baseline vs Placebo [1, 3]: −21.7%
hsCRP, Median % Change From Baseline vs Placebo [1, 3]: −23.0%
nausea Probably Related to the study drug ([2]; 1 g): One
nausea Possibly Related to the study drug, subjects ([2]; 1 g cohort): two
nausea Possibly Related to the study drug, subjects ([2]; 2 g cohort): one
SAE reported ([2]; 2 g treatment group): One
subjects discontinued due to TEAEs ([2]; 2 g treatment group): 2 subjects
Serious Adverse Event (worsening epigastric chest pain), relation to study drug ([2]; 2 g, one subject): unrelated to the study drug
diarrhea Probably Related to the study drug ([2]; 4 g): Another subject
nausea Possibly Related to the study drug, subjects ([2]; 4 g cohort): two
TEAEs Definitely Related to the study drug ([2]; all groups): No TEAEs were Definitely Related
deaths during the study ([2]; all groups): no deaths
treatment emergent AEs (TEAEs) reported ([2]; ethyl-EPA treatment groups (1 g, 2 g, 4 g), placebo groups 34 events): 105 events
